Test results: paper PMC8284453 (Antimicrobial Agents and Chemotherapy, 2021)
Values after ≈ are worked out from the molar mass of the structure shown. Like-named read-outs stand apart in the source and are kept apart here.

Experiments:
[1] = system: K. pneumoniae UNT-023 expressing KPC, TEM-1, and SHV-11; experiment: animal or person; assay type: in vivo; details: Klebsiella pneumoniae, in Mus musculus, 1 h
[2] = system: strains utilized in time-kill studies; experiment: MIC summary across strains utilized in time-kill studies; assay type: cell-based, E. coli, E. cloacae, K. pneumoniae; details: across all four strains
[3] = system: 1,066 clinical urinary tract infection isolates resistant to both amoxicillin-clavulanic acid and levofloxacin; details: VNRX-5236 fixed at 4 μg/ml in the combination; cited from earlier work
[4] = cited from earlier work
[5] = in vivo, cited from earlier work
[6] = system: K. pneumoniae ATCC BAA-1705 expressing KPC-2, SHV, and TEM; details: approved QC range; ref CLSI AST Subcommittee, February 2021; cited from earlier work
[7] = system: E. coli NCTC 13353 expressing CTX-M-15; details: approved QC range; ref CLSI AST Subcommittee, February 2021; cited from earlier work
[8] = system: strains of Enterobacterales expressing serine β-lactamases; experiment: organism not typed; assay type: cell-based
[9] = system: K. pneumoniae ATCC BAA-2814 expressing KPC-3, SHV-11, and TEM; details: approved QC range; ref CLSI AST Subcommittee, February 2021; cited from earlier work
[10] = system: K. pneumoniae UNT-023 expressing KPC, TEM-1, and SHV-11; experiment: microbe, parasite or virus in culture; assay type: cell-based; details: Klebsiella pneumoniae
K. pneumoniae 1434760 = experiment: Impact of pH and human urine on MIC; assay type: cell-based
Experimental: (§1) Studies were conducted by IHMA, Schaumberg, IL. […] MICs were determined by broth […] methodology ([30], [31]). […] Antibacterial panels containing 100 μl of antibacterial solution were inoculated with the adjusted inocula using 95-prong inoculator sets. Test panels were read visually after incubation following CLSI guidelines for each organism. MIC values corresponded to the first well with no visible growth.

[11] = system: K. pneumoniae ATCC BAA-1705; experiment: Impact of pH and human urine on MIC; assay type: cell-based; details: Klebsiella pneumoniae, ATCCBAA1705, read-out: Median or modal MIC
Experimental: as §1

E. coli 1480076 = experiment: Impact of pH and human urine on MIC; assay type: cell-based
Experimental: as §1

[12] = system: K. pneumoniae ATCC 700603; experiment: Impact of pH and human urine on MIC; assay type: cell-based; details: Klebsiella pneumoniae, ATCC700603, read-out: Median or modal MIC
Experimental: as §1

K. pneumoniae 1266420 = experiment: Impact of pH and human urine on MIC; assay type: cell-based; details: Klebsiella pneumoniae
Experimental: as §1

E. coli ATCC 25922 = experiment: Impact of pH and human urine on MIC; assay type: cell-based; details: Escherichia coli, ATCC25922, read-out: Median or modal MIC
Experimental: as §1

Nc1nc(/C(=C/CC(=O)O)C(=O)N[C@@H]2C(=O)N3C(C(=O)O)=CCS[C@H]23)cs1 [CTB, ceftibuten]
ED50 [1]: > 128 mg/kg
MIC range [2]: 16 to 128 µg/mL
MIC90 [3]: > 32 µg/mL
human plasma protein binding [4]: ~60%
oral bioavailability ([5]; po): ~65%
plasma half-life [5]: ~2.4 h
renal excretion [5]: ~56%
QC range (MIC) [6]: 4 to 32 µg/mL
QC range (MIC) [7]: 16 to 64 µg/mL
MIC50 [8]: 0.12 µg/mL (≈ 0.292 µM)
MIC90 [8]: 1 µg/mL (≈ 2.44 µM)
QC range (MIC) [9]: 8 to 32 µg/mL
MIC [10]: 64 µg/mL (≈ 156 µM)
MIC (K. pneumoniae 1434760; Klebsiella pneumoniae, 1434760, pH 6, read-out: Median or modal MIC): > 128 µg/mL
MIC (K. pneumoniae 1434760; Klebsiella pneumoniae, 1434760, pH 7.2, read-out: Median or modal MIC): 128 µg/mL (≈ 312 µM)
MIC (K. pneumoniae 1434760; Klebsiella pneumoniae, 1434760, read-out: Median or modal MIC): > 128 µg/mL
MIC ([11]; Human urine, pH 6): 2 µg/mL (≈ 4.87 µM)
MIC ([11]; Human urine, pH 7.2): 2 µg/mL (≈ 4.87 µM)
MIC ([11]; MHII broth): 8 µg/mL (≈ 19.5 µM)
MIC (E. coli 1480076; Escherichia coli, 1480076, read-out: Median or modal MIC): 128 µg/mL (≈ 312 µM)
MIC (E. coli 1480076; Escherichia coli, 1480076, Human urine, pH 6, read-out: Median or modal MIC): 32 µg/mL (≈ 78 µM)
MIC (E. coli 1480076; Escherichia coli, 1480076, Human urine, pH 7.2, read-out: Median or modal MIC): 32 µg/mL (≈ 78 µM)
MIC ([12]; Human urine, pH 6): 1 µg/mL (≈ 2.44 µM)
MIC ([12]; Human urine, pH 7.2): 0.5 µg/mL (≈ 1.22 µM)
MIC ([12]; MHII broth): 0.5 µg/mL (≈ 1.22 µM)
MIC (K. pneumoniae 1266420; Human urine, pH 6, read-out: Median or modal MIC): 64 µg/mL (≈ 156 µM)
MIC (K. pneumoniae 1266420; Human urine, pH 7.2, read-out: Median or modal MIC): 16 µg/mL (≈ 39 µM)
MIC (K. pneumoniae 1266420; MHII broth, read-out: Median or modal MIC): 32 µg/mL (≈ 78 µM)
MIC (E. coli ATCC 25922; Human urine, pH 6): 0.25 µg/mL (≈ 0.609 µM)
MIC (E. coli ATCC 25922; Human urine, pH 7.2): 0.12 µg/mL (≈ 0.292 µM)
MIC (E. coli ATCC 25922; MHII broth): 0.25 µg/mL (≈ 0.609 µM)
